In the supplement of paper PMC11061612:

How the values were obtained:
Assay in all cases: Bliss excess, mean over the matrix (fraction); higher = more synergy
[1] = test system: ME-180 (Cervical Carcinoma)
Outline: (§1)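 After 24 hours at 37°C and 5% CO2 in 1536-well plates, cells in DMEM/F12 or RPMI plus 10% FBS received two-drug dose matrices for 72 hours. Viability came from CellTiter-Glo 2.0 luminescence and was scaled as inhibition, anchored at 0 by vehicle wells and at 1 by blank wells. Combination Emax is taken as the second-highest inhibition in the matrix, and Bliss excess as the observed combination effect less EA + EB − EA·EB, with EA and EB the single-agent effects.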

[2] = test system: OE33 (Esophageal Adenocarcinoma)
Outline: as §1

[3] = test system: NCI-H522 (Lung Adenocarcinoma)
Outline: as §1

[4] = test system: Ca-Ski (Cervical Carcinoma)
Outline: as §1

[5] = test system: SW872 (Other Solid Carcinomas)
Outline: as §1

[6] = test system: SNU-387 (Hepatocellular Carcinoma)
Outline: as §1

[7] = test system: COLO-668 (Small Cell Lung Carcinoma)
Outline: as §1

[8] = test system: A4-Fuk (B-Lymphoblastic Leukemia)
Outline: as §1

[9] = test system: DU-145 (Prostate Carcinoma)
Outline: as §1

[10] = test system: KMRC-1 (Kidney Carcinoma)
Outline: as §1

[11] = test system: MV-4-11 (Acute Myeloid Leukemia)
Outline: as §1

[12] = test system: MOLT-4 (T-Lymphoblastic Leukemia)
Outline: as §1

[13] = test system: NCI-H1355 (Lung Adenocarcinoma)
Outline: as §1

Structure (SMILES)	Bliss excess [1]	Bliss excess [2]	Bliss excess [3]	Bliss excess [4]	Bliss excess [5]	Bliss excess [6]	Bliss excess [7]	Bliss excess [8]	Bliss excess [9]	Bliss excess [10]	Bliss excess [11]	Bliss excess [12]	Bliss excess [13]
CS(=O)(=O)CCNCc1ccc(-c2ccc3ncnc(Nc4ccc(OCc5cccc(F)c5)c(Cl)c4)c3c2)o1 [Lapatinib] + Cn1cnc2c(F)c(Nc3ccc(Br)cc3Cl)c(C(=O)NOCCO)cc21 [Selumetinib] (first compound max 10 µM, 7x7, partner max 10 µM)	-0.028	-0.0143	-0.0304	-0.0185	0.0006	0.0212	-0.0388	-0.045	0.0008	-0.0772	0.0464	0.0852	-0.0323
Cc1c2c(nn1C)CSCc1cc(n(C)n1)CSc1cc(c3ccccc3c1)OCCCc1c(C(=O)O)n(C)c3c-2c(Cl)ccc13 [AZD5991] + CC(=O)O[C@H]1C(=O)[C@@]2(C)[C@H]([C@H](OC(=O)c3ccccc3)[C@]3(O)C[C@H](OC(=O)[C@H](O)[C@@H](NC(=O)c4ccccc4)c4ccccc4)C(C)=C1C3(C)C)[C@]1(OC(C)=O)CO[C@@H]1C[C@@H]2O [Paclitaxel] (first compound max 1 µM, 7x7, partner max 3 µM)	0.0258	-0.0386	0.056	0.0422	0.018	0.0019	0.028	-0.0069	0.0077	0.0286	0.0129	0.0219	-0.0431
C=CCn1c(=O)c2cnc(Nc3ccc(N4CCN(C)CC4)cc3)nc2n1-c1cccc(C(C)(C)O)n1 [AZD1775] + Nc1ccn([C@@H]2O[C@H](CO)[C@@H](O)C2(F)F)c(=O)n1 [Gemcitabine] (first compound max 1 µM, partner max 0.3 µM)	0.0154	-0.0157	0.0486	0.0644	0.0462	-0.0035	-0.0734	0.009	-0.0385	-0.0495	0.0238	0.0162	0.0478
O=C(c1cc(Cc2n[nH]c(=O)c3ccccc23)ccc1F)N1CCN(C(=O)C2CC2)CC1 [Olaparib] + CN(CC[C@H](CSC1=CC=CC=C1)NC2=C(C=C(C=C2)S(=O)(=O)NC(=O)C3=CC=C(C=C3)N4CCC(CC4)[C@H](C5=CC=CC=C5C6=CC=C(C=C6)Cl)O)S(=O)(=O)C(F)(F)F)CCO [AZD4320] (first compound max 10 µM, 7x7, partner max 1 µM)	-0.021	-0.037	-0.0566	0.0083	-0.0189	-0.0863	0.0025	-0.0428	-0.0305	-0.0501	-0.0086	0.0581	-0.0336
C[C@@H]1COCCN1c1cc(C2([S@](C)(=N)=O)CC2)nc(-c2ccnc3[nH]ccc23)n1 [AZD6738] + Nc1ccn([C@@H]2O[C@H](CO)[C@@H](O)C2(F)F)c(=O)n1 [Gemcitabine] (first compound max 10 µM, 7x7, partner max 0.3 µM)	0.0564	-0.0518	0.122	0.0982	0.0769	0.0597	0.0525	-0.0486	0.0742	0.0601	0.0067	0.0315	0.0732
C[C@@H](Nc1cc(F)cc(F)c1)c1cc(C(=O)N(C)C)cc2c(=O)cc(N3CCOCC3)oc12 [AZD8186] + C1CN(CCC1(C(=O)N[C@@H](CCO)C2=CC=C(C=C2)Cl)N)C3=NC=NC4=C3C=CN4 [AZD5363] (first compound max 10 µM, 7x7, partner max 10 µM)	-0.0133	-0.0329	-0.0426	-0.0032	0.0068	-0.0959	-0.002	-0.0183	-0.0038	-0.0524	0.0103	-0.0083	-0.0244
C[C@@H]1COCCN1c1cc(C2([S@](C)(=N)=O)CC2)nc(-c2ccnc3[nH]ccc23)n1 [AZD6738] + C1CC(C1)(C(=O)[O-])C(=O)[O-].N.N.[Pt+2] [Carboplatin] (first compound max 10 µM, 7x7, partner max 10 µM)	-0.013	-0.0416	-0.0584	0.0041	0.0087	-0.0308	0.025	-0.0571	-0.043	-0.0289	-0.0339	-0.013	-0.0345
Cc1c2c(nn1C)CSCc1cc(n(C)n1)CSc1cc(c3ccccc3c1)OCCCc1c(C(=O)O)n(C)c3c-2c(Cl)ccc13 [AZD5991] + Nc1ccn([C@@H]2O[C@H](CO)[C@@H](O)C2(F)F)c(=O)n1 [Gemcitabine] (first compound max 1 µM, 7x7, partner max 0.3 µM)	-0.036	0.0018	0.091	0.0354	-0.0066	-0.0021	-0.0674	-0.0182	-0.0284	-0.0638	0.0035	0.0224	-0.0333
C[C@@H](Oc1cc(-c2cnn(C3CCNCC3)c2)cnc1N)c1c(Cl)ccc(F)c1Cl [Crizotinib] + CC1=C(C(=CC=C1)Cl)NC(=O)C2=CN=C(S2)NC3=CC(=NC(=N3)C)N4CCN(CC4)CCO [Dasatinib] (first compound max 10 µM, 7x7, partner max 2 µM)	0.038	0.0828	-0.0033	0.0454	0.041	0.0371	-0.0289	-0.0089	0.0158	0.0644	0.0161	-0.0209	-0.0431
